In patent publication EP1283052A1, “Pharmaceutical composition containing caspase-8 and /or caspase-9 useful for overcoming glucocorticoid- and cancer therapy-induced apoptosis of tumours” (Deutsches Krebsforschungszentrum Stiftung des öffentlichen …, priority 2001, dated 2003):

Assays:
[1] = tested on: caspase-3; test: Fluorometric caspase-3 activity assay in carcinoma cells; format: cell-based, human; settings: P5 and P693 cells, cisplatin 2 µg/ml alone; Fig. 1c
Protocol: • (a) Human epidermoid lung cancer cells (P693) were injected into nude mice. At a tumour volume of 500 mm^3 weekly treatment with cisplatin (5mg/kg/week) was started. Cisplatin was injected intraperitoneally in the absence (CIS) or presence (DEX/CIS) of DEX which was added to the drinking water (0.28 mg/L) for the duration of the experiment. […] As controls, tumor growth of xenografts from mice which received neither cisplatin nor DEX (CO) or from mice which received DEX only (DEX) was determined. The tumour volume in each animal was measured at weekly intervals for a period of 5 weeks. Data are presented as the means +/- SD of 6 to 8 animals. • (b) The human cervical carcinoma cell lines HeLa and P5 were γ-irradiated (10 Gy) or treated with cisplatin (2 µg/ml) in the absence (white bars) or presence (black bars) of DEX (1 µM). The percentage of apoptosis was measured in untreated (CO) and stimulated cells by annexin-staining and FACS-analysis at the time points indicated. (c) P5, P693 and human leukemic T cells (CEM) cells were treated with cisplatin (2 µg/ml) in the absence or presence of DEX as indicated. 24 and 48 h following treatment cells were lysed and caspase-3 activity was determined by a fluorescent caspase-3 assay and spectroscopy.

[2] = tested on: apoptosome; test: Co-immunoprecipitation of apoptosome proteins with Apaf-1 in P5 cells; format: cell-based, human; settings: carcinoma cells (P5), cisplatin, 24 h; Fig. 5b
Protocol: • (a) P693 and CEM cells were treated with cisplatin (2 µg/ml) in the absence or presence of DEX (1 µM) as indicated. 24 and 48 h following treatment cells were lysed and caspase-9 activity was determined using a fluorescent caspase-9 assay and spectroscopy. • (b) P5 and CEM cells were treated as described above. 24 h after stimulation Apaf-1 was immunoprecipitated from the cell extracts using a […]. Aliquotes of the precipitates were separated by three different gels and analysed by Western blotting using rabbit polyclonal Apaf-1, mAb cytochrome c or caspase-9 antibodies. The antibody heavy chain band (IgGH) ensures equal conditions. […]
• (A) Cell culture. […] The mice were given 0.28 mg/L DEX in drinking water, and the amount of water consumed was monitored. […] The tumour volumes were measured using callipers, and calculated using, as an approximation, the formula for volume of a hemi-ellipsoid: π(width^2 x length)/6. […] Early apoptotic changes were identified by staining of cells with fluoresceinthiocyanate (FITC)-conjugated annexin V and propidium iodide (Becton Dickinson, Heidelberg, Germany) and analysed by flow cytometry (FACScan, Becton Dickinson) as described (Herr et al., EMBO J. 16 (1997), 6200-6208) • (E) Immunohistochemistry. […] Bound antibodies were detected by FITC conjugated anti-mouse or anti-rabbit IgG (Molecular Probes Europe, Leiden, The Netherlands). […]

## N.N.[Cl][Pt][Cl] [cisplatin]
[1]
  caspase-3 activity: induced 48 h following cisplatin
[2]
  amounts of immunoprecipitated apoptosome members (APAF-1, caspase-9, cytochrome c): strong induction in the amounts of APAF-1, caspase-9 and cytochrome c
